Measured values reported in the NIST ThermoML archive (doi:10.1016/j.tca.2005.10.007).

Assay: xn = mol fraction of the nth substance listed
Details: 101 kPa, Liquid, Vibrating tube method

CC(O)CN (centres undefined) [1-amino-2-propanol] + O
mass density [kg/m3]
Details	338.15 K	343.15 K	348.15 K	353.15 K
x2 = 0.0438	–	921.33	917.02	912.66
x2 = 0.0801	–	923	918.7	914.34
x2 = 0.1269	–	925.48	921.19	916.84
x2 = 0.1584	–	927	922.71	918.36
x2 = 0.2003	–	929.26	924.97	920.63
x2 = 0.2999	939.48	935.23	930.93	926.59
x2 = 0.3498	942.69	938.45	934.15	929.81
x2 = 0.3999	945.87	941.62	937.32	932.97
x2 = 0.4499	949.31	945.06	940.76	936.4
x2 = 0.4968	952.72	948.47	944.16	939.8
x2 = 0.5122	953.93	949.68	945.37	941.01
x2 = 0.5501	956.6	952.34	948.03	943.66
x2 = 0.6001	960.54	956.29	951.98	947.61
x2 = 0.6501	964.3	960.06	955.76	951.4
x2 = 0.7	968.01	963.8	959.53	955.2
x2 = 0.7501	971.55	967.4	963.19	958.92
x2 = 0.8	974.51	970.48	966.38	962.22
x2 = 0.84	976.53	972.66	968.72	964.71
x2 = 0.88	977.84	974.2	970.47	966.66
x2 = 0.92	978.68	975.33	971.88	968.33
x2 = 0.96	979.24	976.22	973.07	969.81
